The values below are quoted from earlier work in article PMC9516332 (Frontiers in Oncology, 2022).

In data set [1] the target is T1, panel of 255 wild-type kinases (Homo sapiens, UniProt Q13188).
T1 sequence (Q13188 1-491): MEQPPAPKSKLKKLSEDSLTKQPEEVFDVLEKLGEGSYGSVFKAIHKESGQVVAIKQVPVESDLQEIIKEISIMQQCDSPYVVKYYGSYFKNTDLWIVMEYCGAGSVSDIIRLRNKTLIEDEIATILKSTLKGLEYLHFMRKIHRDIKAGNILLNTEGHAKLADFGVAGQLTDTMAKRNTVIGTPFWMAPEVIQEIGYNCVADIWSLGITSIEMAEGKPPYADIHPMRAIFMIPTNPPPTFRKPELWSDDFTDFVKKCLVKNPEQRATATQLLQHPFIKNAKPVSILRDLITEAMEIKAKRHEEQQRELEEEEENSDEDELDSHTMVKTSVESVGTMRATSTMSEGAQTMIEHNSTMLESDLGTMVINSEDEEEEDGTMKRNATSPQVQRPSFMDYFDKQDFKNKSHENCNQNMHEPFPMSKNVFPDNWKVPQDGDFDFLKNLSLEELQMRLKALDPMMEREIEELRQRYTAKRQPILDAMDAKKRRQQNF
The following applies: MST2; 1 µmol/L single concentration; ref DOI: 10.1371/journal.pone.0092146; cited from earlier work.

The target of data set [2] is panel of 255 wild-type kinases (Homo sapiens, UniProt P07332). The following applies: kinase FES; 1 µmol/L single concentration; ref DOI: 10.1371/journal.pone.0092146; cited from earlier work.
Data set [3] concerns the target panel of 255 wild-type kinases (Homo sapiens, UniProt P00519). The following applies: ABL kinase assay; 1 µmol/L single concentration; ref DOI: 10.1371/journal.pone.0092146; cited from earlier work.
The target in data set [4] is panel of 255 wild-type kinases (Homo sapiens, UniProt Q08345). Particulars: kinase DDR1; 1 µmol/L single concentration; ref DOI: 10.1371/journal.pone.0092146; cited from earlier work.
The target in data set [5] is panel of 255 wild-type kinases (Homo sapiens, UniProt P23443). Particulars: p70S6K; 1 µmol/L single concentration; ref DOI: 10.1371/journal.pone.0092146; cited from earlier work.
Data set [6] concerns the target panel of 255 wild-type kinases (Homo sapiens, UniProt P17612). Particulars: kinase PKACα; 1 µmol/L single concentration; ref DOI: 10.1371/journal.pone.0092146; cited from earlier work.
Data set [7] addresses T2, panel of 255 wild-type kinases (Homo sapiens, UniProt P36888).
T2 sequence (P36888 27-993): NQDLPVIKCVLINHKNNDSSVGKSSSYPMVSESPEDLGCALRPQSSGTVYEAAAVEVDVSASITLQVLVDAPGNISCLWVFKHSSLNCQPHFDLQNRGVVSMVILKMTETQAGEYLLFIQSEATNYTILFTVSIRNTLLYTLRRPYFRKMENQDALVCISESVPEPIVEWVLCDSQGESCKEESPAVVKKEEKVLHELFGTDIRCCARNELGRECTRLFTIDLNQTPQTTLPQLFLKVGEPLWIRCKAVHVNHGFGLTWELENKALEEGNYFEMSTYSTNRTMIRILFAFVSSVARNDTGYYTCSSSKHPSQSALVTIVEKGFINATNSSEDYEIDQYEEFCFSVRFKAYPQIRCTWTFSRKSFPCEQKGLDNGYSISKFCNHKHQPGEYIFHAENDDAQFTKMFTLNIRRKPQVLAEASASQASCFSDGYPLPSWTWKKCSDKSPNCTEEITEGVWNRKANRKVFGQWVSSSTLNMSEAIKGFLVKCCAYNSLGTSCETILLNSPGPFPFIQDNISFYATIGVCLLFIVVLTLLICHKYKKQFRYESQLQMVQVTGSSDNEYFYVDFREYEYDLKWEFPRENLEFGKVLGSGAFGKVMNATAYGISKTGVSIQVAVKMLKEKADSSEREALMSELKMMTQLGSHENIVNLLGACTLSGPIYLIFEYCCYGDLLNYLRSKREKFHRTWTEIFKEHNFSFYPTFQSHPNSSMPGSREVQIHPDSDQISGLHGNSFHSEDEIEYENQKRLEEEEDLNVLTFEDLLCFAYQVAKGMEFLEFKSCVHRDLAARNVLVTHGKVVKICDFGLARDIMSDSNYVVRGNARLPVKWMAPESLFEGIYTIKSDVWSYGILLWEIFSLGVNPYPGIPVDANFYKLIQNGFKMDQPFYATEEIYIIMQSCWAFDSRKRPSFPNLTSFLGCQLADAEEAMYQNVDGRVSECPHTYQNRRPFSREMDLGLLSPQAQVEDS
The following applies: kinase FLT3; 1 µmol/L single concentration; ref DOI: 10.1371/journal.pone.0092146; cited from earlier work.

The target of data set [8] is T3, panel of 255 wild-type kinases (Homo sapiens, UniProt Q13043).
T3 sequence (Q13043 1-487): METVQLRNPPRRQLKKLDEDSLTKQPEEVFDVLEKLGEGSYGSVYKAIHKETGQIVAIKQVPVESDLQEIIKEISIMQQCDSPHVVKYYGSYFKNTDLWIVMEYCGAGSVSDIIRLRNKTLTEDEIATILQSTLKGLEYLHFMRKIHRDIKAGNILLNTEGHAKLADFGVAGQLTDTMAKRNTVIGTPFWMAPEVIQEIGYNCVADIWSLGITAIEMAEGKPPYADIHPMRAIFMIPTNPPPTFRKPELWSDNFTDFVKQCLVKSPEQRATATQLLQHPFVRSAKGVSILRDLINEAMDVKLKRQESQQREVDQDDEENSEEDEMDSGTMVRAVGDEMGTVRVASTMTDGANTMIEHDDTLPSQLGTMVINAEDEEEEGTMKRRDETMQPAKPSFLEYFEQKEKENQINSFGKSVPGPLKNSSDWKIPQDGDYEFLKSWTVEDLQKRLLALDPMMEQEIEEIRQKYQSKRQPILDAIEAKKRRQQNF
The following applies: MST1; 1 µmol/L single concentration; ref DOI: 10.1371/journal.pone.0092146; cited from earlier work.

As for `CCCS(=O)(=O)Nc1ccc(F)c(C(=O)c2c[nH]c3ncc(-c4ccc(Cl)cc4)cc23)c1F` [vemurafenib], the “%-inhibition, MST2” value in data set [1] is reported as 24%. The “%-inhibition at 1 µmol/L, FES” value in data set [2] is listed as 18%. Also, in data set [3], the “%-inhibition ABL” value is 15%. In data set [4], the “%-inhibition at 1 µmol/L, DDR1” value is listed as 52%. Besides, the “%-inhibition, p70S6K” value in data set [5] is recorded as 9%. Also, the “%-inhibition at 1 µmol/L, PKACα” value in data set [6] is recorded as -4%. For the same compound, in data set [7], the “%-inhibition at 1 µmol/L, FLT3” value is 10%. Also, the “%-inhibition, MST1” value in data set [8] is on record as 51%.
